The assay is described as follows: Inhibition constant(Ki) for inhibition of PPIase activity of Legionella pneumophilia FK506 binding protein 25 (Conc=40 nM) of FKBPs family.

The term Ki denotes the equilibrium dissociation constant of an inhibitor or competing ligand from its target. Low values mean tighter binding, high ones weaker binding. `C[C@@H]1C[C@@H]([C@H](O)CC2CC(=O)NC(=O)C2)C(=O)[C@@H](C)C1` [Cycloheximid] yielded a Ki of 124 µM.

The record behind these values is BindingDB's records for doi:10.1021/jm991038t (Max-Planck Research Unit, 1999).
